# What was measured:
# [1] = Dissolution and miscibility tests in sodium bromide brines; assay type: physicochemical; details: for % Complexed or Dissolved / Final Weight of BARACARB 5: 2.5 g BARACARB 5, 150° F., 16 hours
# Description: Dissolution and miscibility tests were also performed on 20% GLDA in sodium bromide brines. 20% GLDA was mixed in various concentration of NaBr in order to evaluate the effect of brine concentration on the dissolving capacity of GLDA. Without being limited by theory, it is believed that reducing the amount of available free water in the brine reduced the dissociation rate of the acid functionalities on the breaker, which in turn reduced the amount of complexed calcium ions. These tests were performed in 20% v/v breaker systems in 10.2 lb/gal KCl/NaBr brine or 12.5 lb/gal NaBr brine. In each case, 2.5 g of BARACARB 5 calcium carbonate was added to the breaker systems at 150° F. for 16 hours. For comparison, a mineral acid breaker system was also tested.
# [2] = Miscibility and pH of breaker systems in fresh water; assay type: physicochemical; details: breaker system in fresh water, 150° F. for 16 hours
# Description: Several chelating agents and acids (breaker systems) were tested for their calcium carbonate dissolving capacity and miscibility in fresh water. Tests of the breaker systems were performed by adding a known volume of breaker system to a volume of brine needed to fill 100 ml in a jar. The jars were then sealed and swirled to mix the components. Samples containing 5%, 10%, or 20% v/v of chelating agents and acids were prepared. The jars were then placed in a static oven at 150° F. for 16 hours. Afterwards, miscibility of the components was observed and the pH of each mixture was tabulated.
# [3] = test system: Alga; details: Alga, in vivo, 72 h
# Description: (§1) GLDA was also tested for its eco-toxicological effect on various environmental subjects. In particular, the active toxicity of GLDA was measured on various organisms following OECD 201, 202 and 203 protocols.
# [4] = parameters: species or system Alga; details: alga, in vivo
# Description: as §1
# [5] = Compatibility and dissolution ability in potassium formate brine; assay type: physicochemical; details: for % Dissolved or precipitated out / Amount of carbonate remaining: 20% v/v breaker; for Amount of carbonate remaining: 2.5 g calcium carbonate, 16 hours, * = precipitation of formate salts
# Description: In this Example, the compatibility and dissolution ability of various breaker systems with formate brine were evaluated. […] For each sample a 20% v/v breaker sample was prepared in three different concentrations of potassium formate brine (11 ppg, 12 ppg, and 13 ppg).
# To determine the compatibility of each breaker with the potassium formate brine, each sample was checked for the formation of formate salts. This precipitation was indicative of an incompatibility of the breaker system with the formate brine. Samples in which precipitation was observed are noted with an asterisk (*).
# The dissolution ability of the breaker systems was also tested in the various concentration of formate brine. […] The jars were then dried in an 90° F. oven for 16 hours. After the elapsed time, the amount of carbonate that remained was weighed and tabulated. The difference in weight represented the amount of carbonate that was dissolved by the breaker system and/or precipitated out as a result of being incompatible with the formate brine.
# [6] = Multiple step return permeability test; details: 20% GLDA solution in 11 lb/gal sodium bromide, 16 hours soak, approximately 110° F.
# Excerpt: To simulate the performance of a breaker solution in potential downhole applications, a 20% GLDA solution in 11 lb/gal sodium bromide was used in a multiple step return permeability test on a low permeability Berea Sandstone core plug. The following procedure was used.
# A 1.0″ diameter core plug was cut out of a Berea Sandstone block having low permeability (about 20% porosity). The core plug was inserted into a containment sleeve of a manual return permeameter (MRP). The pressure chamber was sealed and the temperature was maintained at approximately 110° F., while the confining pressure was at approximately 2,500 psi. Once the temperature and overburden pressure stabilized, isoparaffin solvent (“SOLTROL® 170” commercially available from Chevron Phillips Chemical Company) filtered to 0.45 micron, was produced through the core at 4 ml/min against approximately 200 psi back-pressure. […] The initial and final permeability values were calculated using Darcy's Law for linear flow: […]
# Treatment simulation in the lab involved three separate steps, each step potentially causing formation damage or a reduction in permeability. […] Once the displacement of the drill-in fluid was complete, the damage caused by the previous three injection steps was evaluated by pumping of SOLTROL® 170 through the core until a constant permeability was obtained using the same procedure used for the initial permeability. […]
# [7] = Active toxicity test of GLDA on Rainbow trout (OECD 203); assay type: in vivo, Oncorhynchus mykiss; details: rainbow trout (Oncorhynchus mykiss), in vivo, OECD 203, 96-h
# Description: as §1
# [8] = test system: Rainbow trout (Oncorhynchus mykiss); experiment: as above; assay type: in vivo; details: OECD 203, 96-h
# Description: as §1
# [9] = Active toxicity test of GLDA on Daphnia magna (OECD 202); assay type: in vivo; details: in vivo, OECD 202, 48-h
# Description: as §1
# [10] = test system: Daphnia magna; experiment: as above; assay type: in vivo; details: OECD 202, 48-h
# Description: as §1
# [11] = Chemical oxygen demand (COD) test; assay type: physicochemical
# Excerpt: Table 2 compares the biodegradability of GLDA and EDTA and summarizes chemical oxygen demand (COD) tests which indirectly measures the amount of organic compounds in water.
# [12] = Calcite dissolving capacity of breaker systems; assay type: physicochemical; details: 2.5 g BARACARB 5 in 50 mL test fluid, one hour
# Description: The calcite dissolving capacity of each breaker system was determined in the following manner. A known amount of a technical grade calcium carbonate (commercially available from Halliburton under the tradename “BARACARB 5”) was dried in an oven for 2 hours. […] The solution was subsequently filtered with a 1 micron fiber glass filter paper.
# [13] = 20% v/v breaker in 10.2 lb/gal KCl/NaBr
# [14] = 20% v/v breaker in 12.5 lb/gal NaBr
smiles,measurement,setting,value
"O=C(O)CC[C@@H](C(=O)O)N(CC(=O)O)CC(=O)O [GLDA, L-glutamic acid N,N-diacetic acid]",% Complexed or Dissolved,[1]; [13],49%
same,Final Weight of BARACARB 5,[1]; [13],1.27 g
same,% Complexed or Dissolved,[1]; [14],29%
same,Final Weight of BARACARB 5,[1]; [14],1.78 g
same,carbonate dissolved (FIG. 2),[1]; higher brine concentration,less than 45%
same,carbonate dissolved (FIG. 2),[1]; lower brine concentration,more than 80%
same,pH,[2],>12
same,72-h NOEC,[3],NOEC ≧ 100 mg/l
same,EC50 at 72 h,[4],> 100 µg/mL
same,compatibility with the formate brine,"[5]; 20% v/v breaker, 11, 12 and 13 ppg potassium formate, precipitation of formate salts = incompatible",fully compatible with the formate brine
same,% Dissolved or precipitated out,[5]; 11 ppg Potassium Formate,48%
same,Amount of carbonate remaining,[5]; 11 ppg Potassium Formate,1.05 g
same,% Dissolved or precipitated out,[5]; 12 ppg Potassium Formate,33%
same,Amount of carbonate remaining,[5]; 12 ppg Potassium Formate,1.67 g
same,% Dissolved or precipitated out,[5]; 13 ppg Potassium Formate,20%
same,Amount of carbonate remaining,[5]; 13 ppg Potassium Formate,2.00 g
same,"return permeability after the breaker cleanup, % of the initial permeability",[6],94%
same,LC50 at 96 h,[7],> 100 µg/mL
same,96-h NOEC,[8],NOEC ≧ 100 mg/l
same,EC50 at 48 h,[9],> 100 µg/mL
same,48-h NOEC,[10],NOEC ≧ 100 mg/l
same,COD,[11],345 to 385 mg/g
same,% Carbonate Complexed or Dissolved,[12],19.6%
same,"Final Weight of BARACARB 5, g",[12],2.01 g

# Source: US8881823B2, “Environmentally friendly low temperature breaker systems and related methods” (Halliburton Energy Services, Inc., priority 2011, dated 2014)
